The nature of data set [1]: Anti-inflammatory activity in CD14 expressing human monocytes assessed as inhibition of LPS-stimulated TNFalpha production incubated for 24 hrs followed by further stimulation with LPS during last 4 hrs by ELISA method. Type of data set: functional, cell-based. To be noted: Monocyte.
The test system of data set [2] is Monocyte. The data set can be described thus: Anti-inflammatory activity in CD14 expressing human monocytes assessed as inhibition of LPS-stimulated TNFalpha mRNA expression overnight incubated with 1 uM compound followed by further stimulation with LPS for 2 hrs by quantitative RT-PCR analysis. The format is functional, cell-based.
A short description of data set [3]: Toxicity against human THP1 cells assessed as cell viability at 10 uM incubated for 24 hrs by propidium iodide staining based flow cytometry. To be noted: thp-1, 24 h.
A short description of data set [4]: Anti-inflammatory activity in CD14 expressing human monocytes assessed as inhibition of LPS-stimulated TNFalpha production at 0.5 uM incubated for 24 hrs followed by further stimulation with LPS during last 4 hrs by ELISA method. The conditions noted are these: Monocyte. Type of data set: functional.
The nature of data set [5]: Anti-inflammatory activity in human THP1 cells assessed as inhibition of LPS-stimulated TNFalpha production at 10 uM incubated for 24 hrs followed by further stimulation with LPS during last 4 hrs by ELISA method. Type of data set: functional. To be noted: THP-1.
Data set [6] relates to PBMC. In words: Anti-inflammatory activity in human PBMC assessed as inhibition of LPS-stimulated TNFalpha production at 0.1 uM incubated for 24 hrs followed by further stimulation with LPS during last 4 hrs by ELISA method. The format is functional.
Data set [7] in a line: Anti-inflammatory activity in human THP1 cells assessed as inhibition of LPS-stimulated TNFalpha production at 0.1 uM incubated for 24 hrs followed by further stimulation with LPS during last 4 hrs by ELISA method. The conditions noted are these: THP-1. The format is functional.
Data set [8] deals with Monocyte. In words: Anti-inflammatory activity in human monocytes assessed as inhibition of poly I:C stimulated-IL12 production at 1 and 5 uM pre-incubated for 1 hr followed by overnight poly I:C stimulation by cytometric bead array method. Type of data set: functional, cell-based.
Data set [9] is described as follows: Anti-inflammatory activity in human THP1 cells assessed as inhibition of LPS-stimulated TNFalpha production at 1 uM incubated for 24 hrs followed by further stimulation with LPS during last 4 hrs by ELISA method. Type of data set: functional. To be noted: THP-1.
Data set [10] concerns PBMC. The data set can be described thus: Anti-inflammatory activity in human PBMC assessed as inhibition of LPS-stimulated TNFalpha production at 10 uM incubated for 24 hrs followed by further stimulation with LPS during last 4 hrs by ELISA method. Type of data set: functional.
Data set [11] deals with PBMC. In words: Anti-inflammatory activity in human PBMC assessed as inhibition of LPS-stimulated TNFalpha production at 1 uM incubated for 24 hrs followed by further stimulation with LPS during last 4 hrs by ELISA method. The format is functional.
Data set [12] is described as follows: Anti-inflammatory activity in CD14 expressing human monocytes assessed as inhibition of LPS-stimulated TNFalpha production at 10 uM incubated for 24 hrs followed by further stimulation with LPS during last 4 hrs by ELISA method. The format is functional. To be noted: Monocyte.
The nature of data set [13]: Anti-inflammatory activity in human THP1 cells assessed as inhibition of LPS-stimulated TNFalpha production incubated for 24 hrs followed by further stimulation with LPS during last 4 hrs by ELISA method. The format is functional, cell-based. The conditions noted are these: THP-1.
A short description of data set [14]: Anti-inflammatory activity in human THP1 cells assessed as inhibition of LPS-stimulated TNFalpha production at 5 uM incubated for 24 hrs followed by further stimulation with LPS during last 4 hrs by ELISA method. Type of data set: functional. The conditions noted are these: THP-1.
In data set [15] the test system is PBMC. In words: Anti-inflammatory activity in human PBMC assessed as inhibition of LPS-stimulated TNFalpha production incubated for 24 hrs followed by further stimulation with LPS during last 4 hrs by ELISA method. The format is functional, cell-based.
A short description of data set [16]: Anti-inflammatory activity in CD14 expressing human monocytes assessed as inhibition of LPS-stimulated TNFalpha production at 2.5 uM incubated for 24 hrs followed by further stimulation with LPS during last 4 hrs by ELISA method. The format is functional. The conditions noted are these: Monocyte.
In data set [17] the test system is PBMC. In words: Anti-inflammatory activity in human PBMC assessed as inhibition of LPS-stimulated TNFalpha production at 5 uM incubated for 24 hrs followed by further stimulation with LPS during last 4 hrs by ELISA method. The format is functional.
A further data set deals with Mus musculus. The data set can be described thus: Inhibition of LPS-stimulated TNFalpha production in spelnocytes derived from C57BL/6 mouse treated with two doses of compound at 2 mg/kg, ip at interval of 18 hrs measured 4 hrs after second dose by cytometric bead array method. The format is functional, organism-based. Details: dose 2 mg/kg.
Data set [18] in a line: Anti-inflammatory activity in CD14 expressing human monocytes assessed as inhibition of LPS-stimulated TNFalpha production at 1 uM incubated for 24 hrs followed by further stimulation with LPS during last 4 hrs by ELISA method. To be noted: Monocyte. Type of data set: functional.
Data set [19] is filed under the species Homo sapiens. The data set can be described thus: Anti-inflammatory activity in human MDDC assessed as inhibition of poly I:C stimulated-TNFalpha production at 1 and 5 uM pre-incubated for 1 hr followed by overnight poly I:C stimulation by ELISA method. Type of data set: functional.
The species entered for data set [20] is Homo sapiens. The data set can be described thus: Anti-inflammatory activity in human MDDC assessed as inhibition of poly I:C stimulated-IL12 production at 1 and 5 uM pre-incubated for 1 hr followed by overnight poly I:C stimulation by cytometric bead array method. Type of data set: functional.
The subject of data set [21] is Monocyte. The data set can be described thus: Anti-inflammatory activity in human monocytes assessed as inhibition of poly I:C stimulated-TNFalpha production at 1 and 5 uM pre-incubated for 1 hr followed by overnight poly I:C stimulation by ELISA method. The format is functional, cell-based.
A short description of data set [22]: Toxicity against LPS-stimulated human THP1 cells assessed as cell viability at 10 uM incubated for 24 hrs by propidium iodide staining based flow cytometry relative to control. On the set-up: species or system THP-1. The conditions noted are these: read-out: Activity.
A short description of data set [23]: Toxicity against LPS-stimulated human THP1 cells assessed as cell viability at 10 uM incubated for 24 hrs by propidium iodide staining based flow cytometry. The conditions noted are these: thp-1, 24 h.

Consider one molecule from ChEMBL document CHEMBL3407345, “Synthesis and biological evaluation of pyridazino[1',6':1,2]pyrido[3,4-b]indolinium and pyridazino[1,6-a]benzimidazolium salts as anti-inflammatory agents” (Eur J Med Chem, 2015).

Active and inactive are the calls of the source. The rule behind the calls is not given here.

As for `COc1ccc2c(c1)[nH]c1c2cc[n+]2nc(C)c(C)cc12.[Br-]`, the IC50 in data set [1] was 1.82 µM; in data set [13], 4.49 µM; in the data set with PBMC [15], 3.91 µM. Moreover, the inhibition result with Monocyte [2], with Monocyte [8], in the data set on Mus musculus, in the data set listed under Homo sapiens [19], in the data set listed under Homo sapiens [20] and with Monocyte [21] was “Active” in each case. In addition, the Activity result in data set [3] and in [23] was “Non-toxic” each time. For the same molecule, the inhibition at 0.5 µM in data set [4] was 28.6%. Further, the inhibition at 10 µM in [5] came out at 87.8%; in the data set with PBMC [10] it was 69.2%; in data set [12], 95.3%. Also, the inhibition at 0.1 µM in the data set with PBMC [6] is 22.7%; in data set [7], -0.97%. Further, the inhibition at 1 µM in data set [9] came to 34.9%; with PBMC [11], 38.8%; in [18], 38.1%. In addition, the inhibition at 5 µM in data set [14] worked out at 63.4%; with PBMC [17], 71.2%. Moreover, the inhibition at 2.5 µM in [16] was found to be 56.4%. For the same molecule, the viability at 24 h, 10 µM in [22] was found to be 61.3%.
